Experimental data reported in paper PMC9202019 (ACS Omega, 2022).
Several values for one entry are separate records, joined by “and”; a condition that tells them apart may be missing. Equal values may be shown once. Read-outs that look alike come from different tables or passages of the source.

Legend:
CYP1A2 [1] = target: T1, CYP1A2 (Homo sapiens, UniProt P05177); conditions: HLM; cited from earlier work
T1 sequence (P05177 1-516): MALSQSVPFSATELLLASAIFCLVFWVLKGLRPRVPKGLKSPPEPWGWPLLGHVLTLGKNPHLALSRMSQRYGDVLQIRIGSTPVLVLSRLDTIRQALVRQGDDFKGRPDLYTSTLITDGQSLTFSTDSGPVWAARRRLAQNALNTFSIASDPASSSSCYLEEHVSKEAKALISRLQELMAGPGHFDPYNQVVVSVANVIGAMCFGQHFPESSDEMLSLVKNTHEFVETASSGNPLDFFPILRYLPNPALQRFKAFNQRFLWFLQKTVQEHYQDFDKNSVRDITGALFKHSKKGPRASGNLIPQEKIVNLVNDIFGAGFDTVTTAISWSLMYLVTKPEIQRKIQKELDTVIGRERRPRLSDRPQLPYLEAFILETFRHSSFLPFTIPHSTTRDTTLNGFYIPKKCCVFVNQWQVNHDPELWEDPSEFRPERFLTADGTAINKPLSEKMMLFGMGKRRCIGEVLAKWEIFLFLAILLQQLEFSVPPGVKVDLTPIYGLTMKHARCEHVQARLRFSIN

CYP1A2 [2] = target: T1, CYP1A2; conditions: read-out: IC50 for CYP1A2-mediated phenacetin O-deethylation in HLM; cited from earlier work
[3] = humans; cited from earlier work
[4] = Pharmacokinetics of caffeine alone and with pinocembrin in rats; assay type: in vivo; conditions: male, Wistar, rat, plasma, po, 15 mg/kg
CYP1A2 [5] = conditions: cited from earlier work
CYP1A2 [6] = target: T2, CYP1A2 (Rattus norvegicus, UniProt P04799); conditions: read-out: IC50 for CYP1A2 in RLM; cited from earlier work
T2 sequence (P04799 1-513): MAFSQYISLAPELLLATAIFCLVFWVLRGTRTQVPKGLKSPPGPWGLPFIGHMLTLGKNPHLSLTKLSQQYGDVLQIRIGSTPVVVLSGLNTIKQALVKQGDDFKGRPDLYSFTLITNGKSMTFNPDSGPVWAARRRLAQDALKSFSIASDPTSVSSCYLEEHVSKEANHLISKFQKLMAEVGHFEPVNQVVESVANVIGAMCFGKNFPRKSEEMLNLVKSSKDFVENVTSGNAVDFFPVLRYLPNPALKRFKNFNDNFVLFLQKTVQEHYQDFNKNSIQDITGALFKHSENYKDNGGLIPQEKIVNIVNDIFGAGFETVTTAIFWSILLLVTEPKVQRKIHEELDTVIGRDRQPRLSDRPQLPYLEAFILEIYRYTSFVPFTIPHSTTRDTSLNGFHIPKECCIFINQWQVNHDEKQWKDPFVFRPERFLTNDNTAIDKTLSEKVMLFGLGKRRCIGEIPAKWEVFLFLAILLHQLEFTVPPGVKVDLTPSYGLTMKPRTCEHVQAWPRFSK

[7] = assay type: in vivo, Wistar rats; conditions: male, Wistar, rat, plasma, po, 4 mg/kg; for AUC(0-t): AUC0–t, tacrine 4 mg/kg oral alone (group III); for half-life: T1/2, tacrine 4 mg/kg oral alone (group III)
CYP1A2 [8] = target: T1, CYP1A2; conditions: cited from earlier work
CYP1A2 [9] = target: T1, CYP1A2; conditions: HLM 0.3 mg/mL, phenacetin 1–1500 μM, 30 min
[10] = Stability of pinocembrin in HLM; assay type: in vitro ADME, human; conditions: pinocembrin 5 μM, HLM 0.3 mg/mL, 0-30 min, 37 °C
[11] = Stability of pinocembrin in RLM; assay type: in vitro ADME, rat; conditions: protocol as for HLM
CYP1A2 [12] = target: T2, CYP1A2; test: CYP1A2-catalyzed phenacetin O-deethylation in RLM; assay type: in vitro ADME
[13] = Liver distribution of pinocembrin after intravenous dosing in rats; assay type: in vivo; conditions: male, Wistar, rat, 10 mg/kg
CYP2C9 = conditions: read-out: IC50 for CYP2C9 inhibition; cited from earlier work
CYP2C19 = conditions: read-out: IC50 for CYP2C19 inhibition; cited from earlier work
CYP3A4 = conditions: read-out: IC50 for CYP3A4 inhibition; cited from earlier work
[14] = humans; cited from earlier work; remark: listed apart in the source

Compound: O=c1cc(-c2ccc(O)c(O)c2)oc2cc(O)cc(O)c12 [Luteolin]
- type of CYP1A2 inhibition (CYP1A2 [1]): competitively

Compound: CS(=O)(=O)c1ccc(C2=C(c3ccccc3)C(=O)OC2)cc1 [Rofecoxib]
- IC50 (CYP1A2 [2]): 4.2 µM
- increase in plasma concentration of the CYP1A2 substrate tizanidine [3]: 13.6 fold

Compound: Cn1c(=O)c2c(ncn2C)n(C)c1=O [caffeine]
- AUC(0-t) ([4]; AUC0–t, caffeine 15 mg/kg oral alone (group I)): 2.84 ± 0.141 µg·h/mL
- half-life ([4]; T1/2, caffeine 15 mg/kg oral alone (group I)): 1.1 ± 0.1 h
- portion of the drug metabolized by CYP1A2 (CYP1A2 [5]): > 95%

Compound: Cc1nc2c([nH]1)c(=O)n(C)c(=O)n2Cc1ccco1 [furafylline]
- IC50 (CYP1A2 [6]): 20.8 µM

Compound: Nc1c2c(nc3ccccc13)CCCC2O (stereo not drawn) [hydroxytacrine, 1-hydroxytacrine]
- AUC(0-t) [7]: 0.907 ± 0.129 µg·h/mL
- half-life [7]: 1.5 ± 0.3 h

Compound: CC(C)C1=Cc2ccc3c(c2C(=O)C1=O)CCCC3(C)C [miltirone]
- type of CYP1A2 inhibition (CYP1A2 [8]; kinetic analysis): mixed-type
- IC50 (CYP1A2 [8]; read-out: IC50 for CYP1A2 in HLM, HLM): 1.73 µM

Compound: CCOc1ccc(NC(C)=O)cc1 [phenacetin]
- maximum velocity of the uninhibited reaction (Vmax) for CYP1A2-catalyzed phenacetin O-deethylation (CYP1A2 [9]): 1584 ± 12 pmol/min/mg of protein

Compound: O=C1C[C@@H](c2ccccc2)Oc2cc(O)cc(O)c21 [pinocembrin]
- Stability of pinocembrin in HLM (amount remaining vs 0 min) [10]: stable
- Stability of pinocembrin in RLM (amount remaining vs 0 min) [11]: stable
- IC50 (CYP1A2 [12]): 3.11 ± 0.09 µM
- Kp ([13]; liver and plasma): 1.8 to 3.8
- concentration at 5 min ([13]; liver): 3680 ng/g
- concentration at 15 min ([13]; liver): 2380 ng/g
- concentration at 5 min ([13]; plasma): 2030 ng/mL and 7.9 µM
- concentration at 15 min ([13]; plasma): 0.621 µg/mL
- IC50 (CYP2C9): 13 µM
- IC50 (CYP2C19): 22 µM
- IC50 (CYP3A4): 28 µM

Compound: Nc1c2c(nc3ccccc13)CCCC2 [tacrine]
- AUC(0-t) [7]: 0.142 ± 0.013 µg·h/mL
- half-life [7]: 1.7 ± 0.2 h
- contribution of CYP1A2 to metabolism (CYP1A2 [5]): > 90%

Compound: c1ccc2[nH]c(-c3cscn3)nc2c1 [thiabendazole]
- enhancement in the plasma level of caffeine [14]: 1.6 fold
